{"source": "patent US20060217340A1", "about": "“Methods and products for treating hypertension by modulation of TRPC3 channel activity” (University of Vermont and State Agricultural College, priority 2005, published 2006)", "key": {"[1]": {"tested_on": "pressurized rat cerebral arteries", "experiment": "Arterial diameter recordings (constriction) in pressurized cerebral arteries", "type": "cell-based", "excerpt": "(§1) Oligodeoxynucleotide Sequences and Reverse Permeabilization. TRPC6 sense and antisense oligodeoxynucleotides (ODN's) were designed as previously described (Welsh et al 2002 Circ Res 90, 248-250) and were as follows: sense, 5′-[…]-3′ (SEQ ID: 3) and 5′-GCACACGCAGCCTCTTCAC-3′ (SEQ ID: 4) antisense, 5′-[…]-3′ (SEQ ID: 5) and 5′-[…]-3′ (SEQ ID: 6). TRPC3 sense and antisense ODN's were designed based on the rat TRPC3 gene (Ohki et al 2000 J Biol Chem 275: 39055-39060) and are as follows: sense, 5′-[…]-3′ (SEQ ID: 7) and 5′-[…]-3′ (SEQ ID: 8); anti-sense, 5′-[…]-3′ (SEQ ID: 9) and 5′-[…]-3′ (SEQ ID: 10). The last five bases on the 5′ and 3′ end were phosphorothioated in order to limit ODN degradation. For some experiments fluoroscein-isothiocyanate was conjugated to the 5′ end to allow for histological assessment of cellular uptake of the ODNs. All ODNs were synthesized and HPLC purified commercially by Qiagen (Alameda, Calif., USA). Sense and antisense ODN's (2 μM) were introduced into the arterial SMs using a reversible permeabilization procedure (Lesh et al 1995 Circ Res 77,220-230)). The arterial segments were then organ cultured for 3 days in D-MEM/F-12 culture media with L-glutamine (2 mM), penicillin (50 units/ml) and streptomycin (50 μg/ml) prior to use.\nDiameter and membrane potential recordings. Endothelial cell denuded artery segments were mounted on glass pipettes in an arteriograph chamber (Living Systems, Burlington, Vt., USA), pressurized to 20 mmHg (with no flow), and superfused with warm (37° C.), gassed (95% 02/5% CO2) physiological saline solution (PSS) containing (in mM): 119 NaCl, 4.7 KCl, 24 NaHCO3, 0.2 KH2PO4, […], 1.2 MgSO4, 1.6 CaCl2, and 10.6 glucose, pH 7.4. In experiments using Ca^2+-free PSS, CaCl2 was omitted and 3 mM EGTA and 30 μM diltiazem added. In experiments with diacylglycerol induction, 300 μM of the diacylglycerol analogue OAG (1-oleyol-2-acetyl-sn-glycerol) was added. The endothelium was removed as previously described (Sun et al 1993 Endothelium 1, 115-122). To verify endothelial cell removal the arteries were pressurized to 60 mmHg and allowed to develop myogenic tone prior to exposing the vessels to 1 μM UTP. Absence of a dilation or biphasic constrictor response to 1 μM UTP indicated successful endothelial cell removal (Marelli 2001 Am J Physiol Heart Cir Physiol 281, H1759-H1766; Miyagi et al 1996 Br J Pharmacol 118, 847-856). […] Membrane potential was measured by inserting a sharp glass electrode (≈100 MΩ resistance) containing 0.5M KCl into the vessel wall. The criteria for successful vascular smooth muscle cell impalement were: (1) a sharp negative Vm deflection on entry; (2) a stable potential for at least 1 minute after entry; and (3) a sharp positive Vm deflection upon removal. Measurements were made using an electrometer (World Precision Instruments) and the data were recorded via computer using Axotape and Dataq software. Arterial diameter was measured using a video dimension analyzer (IonOptix Corporation; Milton, Mass.).\nStatistical analysis. Data are expressed as means±SEM, and n indicates the number of animals. Changes in arterial diameter were measured as a percent constriction calculated as follows: [formula]"}, "[2]": {"tested_on": "cerebral artery SMCs", "experiment": "Membrane potential recordings in pressurized cerebral arteries", "type": "cell-based, rat", "excerpt": "as §1\nDiameter and membrane potential recordings. Endothelial cell denuded artery segments were mounted on glass pipettes in an arteriograph chamber (Living Systems, Burlington, Vt., USA), pressurized to 20 mmHg (with no flow), and superfused with warm (37° C.), gassed (95% 02/5% CO2) physiological saline solution (PSS) containing (in mM): 119 NaCl, 4.7 KCl, 24 NaHCO3, 0.2 KH2PO4, […], 1.2 MgSO4, 1.6 CaCl2, and 10.6 glucose, pH 7.4. In experiments using Ca^2+-free PSS, CaCl2 was omitted and 3 mM EGTA and 30 μM diltiazem added. In experiments with diacylglycerol induction, 300 μM of the diacylglycerol analogue OAG (1-oleyol-2-acetyl-sn-glycerol) was added. The endothelium was removed as previously described (Sun et al 1993 Endothelium 1, 115-122). To verify endothelial cell removal the arteries were pressurized to 60 mmHg and allowed to develop myogenic tone prior to exposing the vessels to 1 μM UTP. Absence of a dilation or biphasic constrictor response to 1 μM UTP indicated successful endothelial cell removal (Marelli 2001 Am J Physiol Heart Cir Physiol 281, H1759-H1766; Miyagi et al 1996 Br J Pharmacol 118, 847-856). Arterial diameter or membrane potential (Vm) of sense and anti-sense treated arteries was measured in the absence (control) or presence of UTP (concentration range: 0.1 to 10 μM). Membrane potential was measured by inserting a sharp glass electrode (≈100 MΩ resistance) containing 0.5M KCl into the vessel wall. The criteria for successful vascular smooth muscle cell impalement were: (1) a sharp negative Vm deflection on entry; (2) a stable potential for at least 1 minute after entry; and (3) a sharp positive Vm deflection upon removal. Measurements were made using an electrometer (World Precision Instruments) and the data were recorded via computer using Axotape and Dataq software. Arterial diameter was measured using a video dimension analyzer (IonOptix Corporation; Milton, Mass.)."}, "[3]": {"tested_on": "pressurized rat cerebral arteries", "experiment": "Arterial wall Ca2+ concentration measurement (FURA-2) in isolated arteries", "type": "cell-based", "conditions": "for effect on arterial wall Ca2+ or vessel diameter: absence of extracellular Ca2+", "procedure": "Diameter and membrane potential recordings. […] In experiments using Ca^2+-free PSS, CaCl2 was omitted and 3 mM EGTA and 30 μM diltiazem added. In experiments with diacylglycerol induction, 300 μM of the diacylglycerol analogue OAG (1-oleyol-2-acetyl-sn-glycerol) was added. […] To verify endothelial cell removal the arteries were pressurized to 60 mmHg and allowed to develop myogenic tone prior to exposing the vessels to 1 μM UTP. […] Arterial diameter or membrane potential (Vm) of sense and anti-sense treated arteries was measured in the absence (control) or presence of UTP (concentration range: 0.1 to 10 μM). Membrane potential was measured by inserting a sharp glass electrode (≈100 MΩ resistance) containing 0.5M KCl into the vessel wall. […] Measurements were made using an electrometer (World Precision Instruments) and the data were recorded via computer using Axotape and Dataq software. Arterial diameter was measured using a video dimension analyzer (IonOptix Corporation; Milton, Mass.).\nCa^2+ concentration measurement in isolated arteries. Mounted arteries were equilibrated in 1.6 m M PSS for 40 minutes at 37° C. (pH 7.4) prior to loading the vascular smooth muscle cells with the Ca^2+-sensitive fluorescent dye, FURA-2. To load the cells, the 1.6 mM PSS was gradually replaced over 5 minutes with HEPES solution (25° C., pH 7.4). A total of 40 μL of a premixed 100 μM FURA-2-acetoxymethyl ester solution (100 μg FURA-2, 200 μL Pluronic acid, 800 μL DMSO) was added directly to the HEPES to give a final concentration of 2 μM FURA-2 AM. Loading continued in the dark at 25° C. (pH 7.4) for 40 minutes. At the end of the loading period, the HEPES was replaced with 1.6 mM PSS (35° C., pH 7.4) and 30 minutes was allowed for complete de-esterification of the FURA-2 AM before [Ca^2+]c measurements were made. FURA-2 fluorescence was measured using a photomultiplier system (IonOptix Corporation; Milton, Mass., USA) in which background-corrected ratios of the 510-nm emission from arteries alternatively excited at 340 and 380 nm were obtained at a sampling rate of 5 Hz."}, "[4]": {"conditions": "Gd3+ given prior to re-introduction of extracellular Ca2+"}, "[5]": {"conditions": "OAG, Sprague Dawley, WKY and SHR rats"}, "[6]": {"conditions": "30 μM UTP in PSS, first exposure"}, "[7]": {"conditions": "in the presence of UTP, steady state"}, "[8]": {"conditions": "1 μM nimodipine, extracellular Ca2+ re-introduced in the presence of UTP"}, "[9]": {"conditions": "2 μM thapsigargin, presence of UTP, n=3"}}}
{"molecule": "5′-GGAGTTCAGACTGGCTAGGG-3′ (SEQ ID: 5) and 5′-GCACACGCAGCCTCCTTCAC-3′ (SEQ ID: 6) (DNA, backbone not given here; further chemistry not fully specified) [TRPC6 antisense, TRPC6 antisense oligodeoxynucleotides designed as previously described (Welsh et al 2002)]", "values": [{"measurement": "magnitude of constriction", "setting": "[1]; increasing concentrations of UTP", "result": "did not affect"}, {"measurement": "UTP-induced depolarization, TRPC6 antisense- versus sense-treated group", "setting": "[2]; exposure to UTP", "result": "no difference"}]}
{"molecule": "[Gd+3]", "note": "[Gd^3+]", "values": [{"measurement": "effect on vasoconstriction after Ca2+ return in the presence of UTP", "setting": "[1]; 30 μM Gd3+, nimodipine present", "result": "reverses"}, {"measurement": "vasoconstriction in response to UTP", "setting": "[1]; [4]", "result": "nor did vasoconstriction occur"}, {"measurement": "effect on increase in arterial wall Ca2+ after Ca2+ return in the presence of UTP", "setting": "[3]; 30 μM Gd3+, nimodipine present", "result": "reverses"}, {"measurement": "arterial wall Ca2+ response to UTP", "setting": "[3]; [4]", "result": "did not increase"}]}
{"molecule": "CCCCCCCC/C=C\\CCCCCCCC(=O)OC[C@H](CO)OC(C)=O", "note": "[OAG, 1-oleoyl-2-acetyl-sn-glycerol]", "values": [{"measurement": "constriction of arteries from SHR compared with normotensive rats", "setting": "[1]; [5]", "result": "significantly larger increases"}, {"measurement": "increase in calcium concentration, arteries from SHR compared with normotensive rats", "setting": "[3]; [5]", "result": "significantly larger increases"}]}
{"molecule": "O=c1ccn([C@@H]2O[C@H](COP(=O)(O)OP(=O)(O)OP(=O)(O)O)[C@@H](O)[C@H]2O)c(=O)[nH]1", "note": "[UTP, uridine triphosphate]", "values": [{"measurement": "sustained decrease in lumen diameter", "setting": "[1]; [6]", "result": "49±4", "unit": "%"}, {"measurement": "vessel response in Ca2+ free PSS", "setting": "[1]; continued presence of UTP", "result": "completely relax"}, {"measurement": "decrease in lumen diameter (vasoconstriction) after returning extracellular Ca2+", "setting": "[1]; [7]", "result": "48±5", "unit": "%"}, {"measurement": "depolarization of arterial SMCs", "setting": "[2]; micromolar concentrations of UTP", "result": "approximately 20 mV"}, {"measurement": "initial peak increase in arterial wall Ca2+", "setting": "[3]; 30 μM UTP in PSS containing Ca2+, n=8", "result": "291 ± 45", "unit": "nM"}, {"measurement": "steady state arterial wall [Ca2+]", "setting": "[3]; [6]", "result": "145 ± 10", "unit": "nM"}, {"measurement": "effect on arterial wall Ca2+ or vessel diameter", "setting": "[3]", "result": "neither UTP (FIG. 11 and FIG. 12) nor caffeine (FIG. 11A) affected"}, {"measurement": "arterial wall [Ca2+] in Ca2+ free PSS", "setting": "[3]; continued presence of UTP", "result": "decline below the resting level"}, {"measurement": "arterial wall Ca2+ after returning extracellular Ca2+", "setting": "[3]; [7]", "result": "139 ± 15", "unit": "nM"}]}
{"molecule": "Cn1c(=O)c2c(ncn2C)n(C)c1=O", "note": "[caffeine]", "values": [{"measurement": "% constriction", "setting": "[1]; 10 mM caffeine, PSS containing Ca2+, transient", "result": "31±6", "unit": "%"}, {"measurement": "peak [Ca2+]c", "setting": "[3]; 10 mM caffeine, PSS containing Ca2+", "result": "227 ± 42", "unit": "nM"}, {"measurement": "effect on arterial wall Ca2+ or vessel diameter", "setting": "[3]", "result": "neither UTP (FIG. 11 and FIG. 12) nor caffeine (FIG. 11A) affected"}]}
{"molecule": "COCCOC(=O)C1=C(C)NC(C)=C(C(=O)OC(C)C)C1c1cccc([N+](=O)[O-])c1", "note": "(stereo not shown) [nimodipine]", "values": [{"measurement": "UTP-induced vasoconstriction", "setting": "[1]; [8]", "result": "29±3", "unit": "%"}, {"measurement": "UTP-induced increase in arterial wall Ca2+", "setting": "[3]; [8]", "result": "94 ± 10", "unit": "nM"}, {"measurement": "share of extracellular Ca2+ influx entering through the L-type Ca2+ channel", "setting": "[3]; re-admission of Ca2+ in the presence of UTP", "result": "about 30%"}]}
{"molecule": "C/C=C(/C)C(=O)O[C@H]1C(C)=C2[C@H]([C@@H]1OC(=O)CCCCCCC)[C@@](C)(OC(C)=O)C[C@H](OC(=O)CCC)[C@@]1(O)[C@H]2OC(=O)[C@@]1(C)O", "note": "[thapsigargin]", "values": [{"measurement": "diameter decrease when extracellular Ca2+ reintroduced", "setting": "[1]; [9]", "result": "39±6", "unit": "%"}, {"measurement": "arterial wall Ca2+ when extracellular Ca2+ reintroduced", "setting": "[3]; [9]", "result": "116 ± 29", "unit": "nM"}]}
